Measurements from BigSolDB 2.1.

CC(=O)O[C@H]1NC(=O)[C@@H]1[C@@H](C)O[Si](C)(C)C(C)(C)C
solubility (mole fraction)
Conditions	293.15 K	298.15 K	303.15 K	308.15 K	313.15 K	318.15 K	323.15 K	328.15 K	333.15 K
in THF	0.238	0.242	0.251	0.264	0.278	0.3	0.323	0.342	0.368
in acetone	0.147	0.166	0.186	0.203	0.218	0.233	0.244	0.254	0.259
in acetonitrile	0.0493	0.0629	0.0792	0.0963	0.114	0.132	0.15	0.166	0.184
in chloroform	0.258	0.266	0.276	0.291	0.308	0.325	0.347	0.371	0.403
in cyclohexane	0.0028	0.00408	0.00582	0.00838	0.0116	0.0163	0.0223	0.0306	0.0413
in ethanol	0.0492	0.0601	0.072	0.0859	0.104	0.121	0.145	0.17	0.2
in ethyl acetate	0.159	0.179	0.198	0.216	0.24	0.264	0.294	0.326	0.356
in methanol	0.0593	0.069	0.0809	0.0959	0.113	0.134	0.161	0.193	0.233
in n-butyl acetate	0.13	0.145	0.163	0.18	0.199	0.221	0.251	0.288	0.326
in n-hexane	0.00287	0.00411	0.00577	0.00813	0.0116	0.0161	0.022	0.0305	0.0422
in toluene	0.0796	0.096	0.116	0.141	0.163	0.186	0.209	0.238	0.265
